Data set [1] concerns the target T1, aromatase (Homo sapiens, UniProt P11511).
T1 sequence (P11511 1-503): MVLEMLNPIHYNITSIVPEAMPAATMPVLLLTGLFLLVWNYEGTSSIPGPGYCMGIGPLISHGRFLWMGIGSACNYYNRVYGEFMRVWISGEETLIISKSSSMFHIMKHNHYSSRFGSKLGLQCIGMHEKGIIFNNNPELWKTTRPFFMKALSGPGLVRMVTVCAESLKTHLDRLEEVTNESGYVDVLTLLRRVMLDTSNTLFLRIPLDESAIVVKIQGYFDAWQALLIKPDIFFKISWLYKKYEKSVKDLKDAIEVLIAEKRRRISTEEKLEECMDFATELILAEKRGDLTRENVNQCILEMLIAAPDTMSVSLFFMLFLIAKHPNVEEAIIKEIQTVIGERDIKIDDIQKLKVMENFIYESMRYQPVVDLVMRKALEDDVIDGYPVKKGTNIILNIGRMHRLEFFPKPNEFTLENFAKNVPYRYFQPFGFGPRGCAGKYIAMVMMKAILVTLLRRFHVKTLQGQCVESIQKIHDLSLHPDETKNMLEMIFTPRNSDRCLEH
The format is biochemical. Further details: Microsomes were obtained from human placentas after normal deliveries; from tissue; host or cells: human placenta, microsomes (washed twice, lyophilized).

For data set [2], the target named is T1, aromatase. Briefly: biochemical. Format: biochemical. Details: Microsomes were obtained from human placentas after normal deliveries; from tissue; host or cells: human placenta, microsomes (washed twice, lyophilized). As for the experimental part: (§1) Test A. Enzyme Affinity Assay
(§2) Microsomes were obtained from human placentas after normal deliveries and prepared as described previously (Ryan, K. J. "Biological aromatization of steroids" J Biol. Chem. 1959, 234, 266-272). Following isolation of the microsomal pellets (washed twice), they were lyophilized and stored at -20° C.

Data set [3] has as its target T1, aromatase. Put plainly: Test C. Ki Determination / enzyme inactivation kinetics (Kitz and Wilson). The following applies: for T1/2 of enzyme inhibition / KI (inactivation): Table 2; for KI (inactivation): read-out: App. Ki(inact), apparent Ki for inactivation; for kinact: read-out: kcat.
For data set [4], the target named is T1, aromatase. Put plainly: Aromatase inhibition, overall results of tests A, B, and C. Format: biochemical. Details: Microsomes were obtained from human placentas after normal deliveries; from tissue; host or cells: human placenta, microsomes (washed twice, lyophilized). As for the experimental part: as §1, §2
Test B. Evaluation of Time-Dependent Inhibition
This determination requires measurements at initial velocities of enzyme reaction. The enzyme activity is determined following different preincubation times at various inhibitor concentrations when assayed at a substrate concentration of at least ten times the Km of androstenedione.

Data set [5] is described as follows: Incubation with rat liver homogenates (prodrug dehydration). The following applies: gives compound (4). Format: in vitro ADME. The text has this: Accordingly, the invention includes a compound of formula III, wherein R to R^5 are defined as above; or a pharmaceutically acceptable salt thereof. The invention also includes a pharmaceutical composition comprising a compound of formula III; or a pharmaceutically acceptable salt thereof; and a pharmaceutically acceptable diluent or carrier. Because alcohols of formula III are capable of acting as prodrugs for compounds of formula I, it may be advantageous to use an alcohol of formula III in place of a corresponding compound of formula I in any of the methods disclosed herein. Accordingly, the invention includes a method for treating a disease in a human or other mammal in need thereof in which aromatase has been implicated and inhibition of its action is desired, comprising administering to said human or mammal an effective amount of a compound of formula III; or a pharmaceutically acceptable salt thereof. The invention also includes a method for inhibiting aromatase in a mammal comprising administering to said mammal an effective amount of a compound of formula III; or a pharmaceutically acceptable salt thereof.

Substrate in data set [6]: C[C@]12CCC(=O)C=C1CC[C@@H]1[C@@H]2CC[C@]2(C)C(=O)CC[C@@H]12
Put plainly: purified protein, by the assay type. The note with it: other: natural substrate.

Where “and” joins values, the source holds several entries; their conditions need not be identical. Identical values can stand only once. Like-named read-outs stand apart in the source and are kept apart here.

Regarding `C[C@]12C=CC(=O)C=C1C=C[C@@H]1[C@@H]2CC[C@]2(C)C(=O)CC[C@@H]12` [1,4,6-ATD, androst-1,4,6-triene-3,17-dione], the “Type of Inhibition” value at aromatase [1] (Table 1) is listed as “Irreversible/Inactivation”. At aromatase [2] (Table 1, apparent Ki, read-out: Ki (apparent)), the Ki stood at 0.136 µM. In addition, on aromatase [2] (Table 1, human placental microsomes, read-out: IC50), the IC50 worked out at 0.89 µM.

Regarding `C[C@]12CCC(=O)C(O)=C1CC[C@@H]1[C@@H]2CC[C@]2(C)C(=O)CC[C@@H]12` [4-Hydroxy AD, 4-hydroxyandrostenedione], on aromatase [1], the “Type of Inhibition” value is recorded as “Irreversible/Inactivation”. The same molecule yielded an IC50 at aromatase [2] (IC50) of 0.25 µM. For the same molecule, the Ki at aromatase [2] (read-out: Ki (apparent)) was determined as 0.0408 µM.

Turning to `C#CC[C@H]1C[C@@H]2[C@H](CC[C@]3(C)C(=O)CC[C@@H]23)[C@H]2CCC(=O)C=C12` [6α-Propargyl ED], the “Type of Inhibition” value at aromatase [1] is on record as “Reversible”. Moreover, on aromatase [2] (IC50), the midpoint of inhibition, the IC50, lay at 0.43 µM.

In the case of `C#CC[C@H]1C[C@@H]2[C@H](CC[C@]3(C)C(=O)CC[C@@H]23)[C@@]2(C)CCC(=O)C=C12` [6α-propynyl compound, 6α-(2-propynyl)androst-4-ene-3,17-dione], the “enzyme affinity compared with other known inhibitors” value on aromatase [2] is given as “greater enzyme affinty than other known inhibitors”.

As for `C#CC[C@@H]1C[C@@H]2[C@H](CC[C@]3(C)C(=O)CC[C@@H]23)[C@@]2(C)CCC(=O)C=C12` [6β-Propargyl AD, 6β-Propargyl-4-androstene-3,17-dione], on aromatase [3], the “T1/2 of enzyme inhibition” value is recorded as 7.7 min, the KI (inactivation) is 0.0468 µM and the kinact worked out at 0.0015 s⁻¹. At aromatase [3] (test C), the “irreversibility / mechanism of inhibition” value is “irreversibly bound to the enzyme”. Further, the “affinity for the enzyme site relative to natural substrate androstenedione” value on aromatase [3] (vs androstenedione Km) is given as “about five times greater”. Moreover, at aromatase [4], the “aromatase inhibitory properties, in words” value is “superior to other known aromatase inhibitors”. In addition, on aromatase [2] (Ki (apparent)), the Ki is 0.0098 µM and 0.0875 µM.

With `C#CC[C@@H]1C[C@@H]2[C@H](CC[C@]3(C)C(=O)CC[C@@H]23)[C@H]2CCC(=O)C=C12` [6β-Propargyl ED, 6β-Propargyl-4-estrene-3,17-dione], the “Type of Inhibition” value on aromatase [1] is on record as “Irreversible/Inactivation”. Further, at aromatase [3], the “T1/2 of enzyme inhibition” value is on record as 9.75 min, the KI (inactivation) stood at 0.0154 µM and the kinact is 0.0012 s⁻¹. In addition, the half-maximal inhibitory concentration (IC50) on aromatase [2] (IC50) is 0.098 µM. For the same molecule, the Ki on aromatase [2] (Ki (apparent)) came to 0.0435 µM.

With `C#CC[C@]12CCC(=O)C=C1CC[C@@H]1[C@@H]2CC[C@]2(C)C(=O)CC[C@@H]12` [10β-Propargyl ED, 10-(2-propynyl)estr-4-ene-3,17-dione], the “Type of Inhibition” value on aromatase [1] was “Irreversible/Inactivation”. The same molecule had an IC50 at aromatase [2] (IC50) of 0.042 µM. On aromatase [2] (Ki (apparent)), the Ki is 0.0267 µM.

Regarding `C#CC[C@@H]1C[C@H]2[C@@H]3CCC(=O)[C@@]3(C)CC[C@@H]2[C@@]2(C)CCC(=O)C[C@]12O` [compound (3)], in data set [5], the “dehydration in the presence of rat liver homogenates” value is given as “found to dehydrate in the presence of the homogenates to give compound (4)”.

B1: aromatase (Homo sapiens) (protein)
chain: MVLEMLNPIHYNITSIVPEAMPAATMPVLLLTGLFLLVWNYEGTSSIPGPGYCMGIGPLISHGRFLWMGIGSACNYYNRVYGEFMRVWISGEETLIISKSSSMFHIMKHNHYSSRFGSKLGLQCIGMHEKGIIFNNNPELWKTTRPFFMKALSGPGLVRMVTVCAESLKTHLDRLEEVTNESGYVDVLTLLRRVMLDTSNTLFLRIPLDESAIVVKIQGYFDAWQALLIKPDIFFKISWLYKKYEKSVKDLKDAIEVLIAEKRRRISTEEKLEECMDFATELILAEKRGDLTRENVNQCILEMLIAAPDTMSVSLFFMLFLIAKHPNVEEAIIKEIQTVIGERDIKIDDIQKLKVMENFIYESMRYQPVVDLVMRKALEDDVIDGYPVKKGTNIILNIGRMHRLEFFPKPNEFTLENFAKNVPYRYFQPFGFGPRGCAGKYIAMVMMKAILVTLLRRFHVKTLQGQCVESIQKIHDLSLHPDETKNMLEMIFTPRNSDRCLEH
Consider B1, for which the Km in data set [6] came to 0.055 µM.
